Test [1] addresses T1, Hepatocyte growth factor activator serine protease (Homo sapiens) (UniProt Q04756).
T1 sequence (whole entry): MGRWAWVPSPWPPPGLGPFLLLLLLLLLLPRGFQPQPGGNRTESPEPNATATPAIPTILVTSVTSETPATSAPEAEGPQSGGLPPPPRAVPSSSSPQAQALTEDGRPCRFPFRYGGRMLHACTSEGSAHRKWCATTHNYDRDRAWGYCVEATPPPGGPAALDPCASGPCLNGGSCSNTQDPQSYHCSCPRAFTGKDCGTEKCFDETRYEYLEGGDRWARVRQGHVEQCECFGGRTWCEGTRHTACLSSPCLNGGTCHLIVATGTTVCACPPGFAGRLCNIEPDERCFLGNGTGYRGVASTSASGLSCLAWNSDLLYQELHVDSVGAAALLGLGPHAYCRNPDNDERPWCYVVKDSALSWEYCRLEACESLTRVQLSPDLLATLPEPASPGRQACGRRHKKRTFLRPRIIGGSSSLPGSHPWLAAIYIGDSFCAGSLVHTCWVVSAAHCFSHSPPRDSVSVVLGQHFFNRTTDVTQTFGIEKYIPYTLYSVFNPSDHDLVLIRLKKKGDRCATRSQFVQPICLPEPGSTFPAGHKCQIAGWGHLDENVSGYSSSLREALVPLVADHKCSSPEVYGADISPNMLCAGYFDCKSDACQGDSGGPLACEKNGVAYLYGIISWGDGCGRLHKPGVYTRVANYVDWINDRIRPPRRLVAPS
Briefly: (§1) Inhibition of HGFA in human MDA-MB-231 cells assessed as inhibition of c-MET phosphorylation after 15 mins by immunoblotting. It counts as cell-based.

For test [2], the target named is T1, Hepatocyte growth factor activator serine protease (Homo sapiens). Briefly: Inhibition of recombinant HGFA (unknown origin)-mediated proteolytic activation of pro-HGF after 1 hr by immunoblotting.
Test [3] shares this target. Briefly: Inhibition of recombinant HGFA (unknown origin)-mediated proteolytic activation of pro-MSP after 1 hr by immunoblotting.
The target of test [4] is T2, Hepatocyte growth factor activator serine protease (Homo sapiens, UniProt Q04756).
T2 sequence (Q04756 whole entry): T1 sequence (whole entry)
The test is described as §1. It counts as cell-based.

Test [5] concerns the target T3, Suppressor of tumorigenicity 14 protein (Homo sapiens, UniProt Q9Y5Y6).
T3 sequence (Q9Y5Y6 whole entry): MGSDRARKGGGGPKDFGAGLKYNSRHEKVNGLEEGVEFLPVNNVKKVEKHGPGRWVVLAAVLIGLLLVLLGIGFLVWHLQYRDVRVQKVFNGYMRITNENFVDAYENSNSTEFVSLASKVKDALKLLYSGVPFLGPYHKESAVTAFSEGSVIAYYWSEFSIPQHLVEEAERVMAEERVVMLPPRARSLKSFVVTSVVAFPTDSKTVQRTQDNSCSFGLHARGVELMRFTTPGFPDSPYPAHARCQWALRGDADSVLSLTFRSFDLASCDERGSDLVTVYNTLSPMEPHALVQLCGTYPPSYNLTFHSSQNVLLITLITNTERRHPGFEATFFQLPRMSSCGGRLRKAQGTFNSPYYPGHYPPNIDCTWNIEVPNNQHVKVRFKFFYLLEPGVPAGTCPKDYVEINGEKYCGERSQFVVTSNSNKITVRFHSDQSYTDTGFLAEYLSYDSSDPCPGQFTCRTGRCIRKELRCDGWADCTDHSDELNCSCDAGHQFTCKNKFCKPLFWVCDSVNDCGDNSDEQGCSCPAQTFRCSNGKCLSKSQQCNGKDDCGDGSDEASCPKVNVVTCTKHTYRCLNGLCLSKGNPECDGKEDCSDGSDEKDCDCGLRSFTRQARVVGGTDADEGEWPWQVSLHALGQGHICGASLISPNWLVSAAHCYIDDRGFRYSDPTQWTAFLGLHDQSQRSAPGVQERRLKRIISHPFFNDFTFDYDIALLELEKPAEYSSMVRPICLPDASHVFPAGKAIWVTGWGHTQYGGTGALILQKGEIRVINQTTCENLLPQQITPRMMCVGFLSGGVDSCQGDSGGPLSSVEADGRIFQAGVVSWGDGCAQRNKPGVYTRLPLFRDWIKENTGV
Briefly: Inhibition of matriptase (unknown origin) using Boc-QAR-AMC as substrate by fluorescence assay.

The next test addresses Serine protease hepsin (Homo sapiens, UniProt P05981). Briefly: Inhibition of recombinant hepsin (unknown origin) using Boc-QAR-AMC as substrate by fluorescence assay.
The species entered for test [6] is Homo sapiens. Briefly: Ratio of Ki for matriptase (unknown origin) to Ki for recombinant hepsin (unknown origin).
Test [7] is filed under the species Homo sapiens. Briefly: Ratio of Ki for matriptase (unknown origin) to Ki for recombinant HGFA (unknown origin).

Molecules are shown by their SMILES. Residues, ends and D or L forms follow the SMILES beside them.

Chain of Serine protease hepsin (P05981 1-162 limits assumed): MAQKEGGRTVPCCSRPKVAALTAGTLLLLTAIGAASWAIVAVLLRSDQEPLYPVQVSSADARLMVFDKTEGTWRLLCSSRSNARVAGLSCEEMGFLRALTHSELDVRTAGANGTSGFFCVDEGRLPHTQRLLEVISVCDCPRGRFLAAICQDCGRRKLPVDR
Chain of Serine protease hepsin (P05981 163-417 limits assumed): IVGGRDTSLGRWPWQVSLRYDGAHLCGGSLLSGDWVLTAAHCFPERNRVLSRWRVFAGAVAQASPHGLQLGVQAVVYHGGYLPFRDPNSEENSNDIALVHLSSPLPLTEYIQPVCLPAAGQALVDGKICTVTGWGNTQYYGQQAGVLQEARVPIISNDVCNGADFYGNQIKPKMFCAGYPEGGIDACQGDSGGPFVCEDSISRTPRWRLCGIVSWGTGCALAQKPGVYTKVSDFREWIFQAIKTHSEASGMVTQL

On to `CC(=O)N[C@@H](CCCCN)C(=O)N[C@@H](CCCNC(=N)N)C(=O)N[C@@H](CC(C)C)C(=O)N[C@@H](CCCNC(=N)N)C(=O)c1nccs1`, for which the inhibition result in test [1], in test [2] and in test [3] was “Dose-dependent effect” in each case.
On to `CC(C)C[C@H](NC(=O)[C@H](CCCNC(=N)N)NC(=O)[C@@H](N)CCCCN)C(=O)N[C@@H](CCCNC(=N)N)C(=O)O` (H-KRLR-OH), for which the EC50 in test [4] was found to be 180 nM.
Same read-out and setting: as for `N=C(N)c1ccc2cc(OC(=O)c3ccc(N=C(N)N)cc3)ccc2c1` [NAFAMOSTAT], the figure is 490 nM.
Turning to `CC(=O)N[C@@H](Cc1c[nH]c2ccccc12)C(=O)N[C@@H](CCCNC(=N)N)C(=O)N[C@@H](CC(C)C)C(=O)N[C@@H](CCCNC(=N)N)C(=O)c1nccs1`, the inhibition result in test [2] and in test [3] was “Dose-dependent effect” throughout.
`CC(=O)N[C@@H](CCCCN)C(=O)N[C@@H](Cc1cnc[nH]1)C(=O)N[C@@H](CC(C)C)C(=O)N[C@@H](CCCNC(=N)N)C(=O)c1nccs1`: the Ki in test [5] came to 22 nM.
`CC(=O)N[C@@H](Cc1c[nH]c2ccccc12)C(=O)N[C@@H](CCC(N)=O)C(=O)N[C@@H](CC(C)C)C(=O)N[C@@H](CCCNC(=N)N)C(=O)c1nccs1`: the affinity in test [5], expressed as Ki, was 32 nM.
Consider `CC(=O)N[C@@H](CCCCN)C(=O)N[C@@H](CCC(N)=O)C(=O)N[C@@H](CC(C)C)C(=O)N[C@@H](CCCNC(=N)N)C(=O)c1nccs1`, for which the values for the inhibition constant (Ki) (on Serine protease hepsin; in test [5]) were 0.22 nM and 0.92 nM, respectively. The inhibition entry in test [2] and in test [3] was “Dose-dependent effect” each time. Further, the Ratio Ki in the test listed under Homo sapiens [6] amounted to 200.
Regarding `CC(=O)N[C@@H](CC(C)C)C(=O)N[C@@H](CC(C)C)C(=O)N[C@H](C=O)CCCNC(=N)N`, the Ratio Ki in the test filed under Homo sapiens [6] and in the test filed under Homo sapiens [7] was 3 in each case.
Regarding `CC(C)C[C@H](NC(=O)[C@H](CCC(N)=O)NC(=O)[C@@H](N)CCCCN)C(=O)N[C@@H](CCCNC(=N)N)C(=O)O` (H-KQLR-OH), the EC50 in test [4] amounted to 3100 nM.
In the case of `CC(=O)N[C@@H](CO)C(=O)N[C@@H](CCCNC(=N)N)C(=O)N[C@@H](CC(C)C)C(=O)N[C@@H](CCCNC(=N)N)C(=O)c1nccs1`, the inhibition result in test [3] was “Dose-dependent effect”.

(Values after ChEMBL document CHEMBL3352254, “Inhibitors of HGFA, Matriptase, and Hepsin Serine Proteases: A Nonkinase Strategy to Block Cell Signaling in Cancer” (ACS Med Chem Lett, 2014).)
